Calls of active or inactive are those of the source. The calls are words filed in the database; no cut-off is given here.
Legend:
Assay type in all cases: functional
Aspergillus niger [1] = assay: Antifungal activity against Aspergillus niger assessed as diameter of inhibition zone at 50 ug/well after 48 hrs by agar well diffusion method; details: for zone of inhibition at 50 µg/disc: read-out: DIZ
Penicillium chrysogenum [2] = assay: Antifungal activity against Penicillium chrysogenum assessed as diameter of inhibition zone at 12.5 ug/well after 48 hrs by agar well diffusion method
Penicillium chrysogenum [3] = assay: Antifungal activity against Penicillium chrysogenum assessed as diameter of inhibition zone at 25 ug/well after 48 hrs by agar well diffusion method; details: for zone of inhibition at 25 µg/disc: read-out: DIZ
Aspergillus niger [4] = assay: Antifungal activity against Aspergillus niger assessed as diameter of inhibition zone at 100 ug/well after 48 hrs by agar well diffusion method; details: for zone of inhibition at 100 µg/disc: read-out: DIZ
Penicillium chrysogenum [5] = assay: Antifungal activity against Penicillium chrysogenum assessed as diameter of inhibition zone at 100 ug/well after 48 hrs by agar well diffusion method; details: for zone of inhibition at 100 µg/disc: read-out: DIZ
Aspergillus niger [6] = assay: Antifungal activity against Aspergillus niger after 48 hrs by turbidity-based broth dilution assay
Aspergillus niger [7] = assay: Antifungal activity against Aspergillus niger assessed as diameter of inhibition zone at 25 ug/well after 48 hrs by agar well diffusion method; details: for zone of inhibition at 25 µg/disc: read-out: DIZ
Penicillium chrysogenum [8] = assay: Antifungal activity against Penicillium chrysogenum after 48 hrs by turbidity-based broth dilution assay
Penicillium chrysogenum [9] = assay: Antifungal activity against Penicillium chrysogenum assessed as diameter of inhibition zone at 50 ug/well after 48 hrs by agar well diffusion method; details: for zone of inhibition at 50 µg/disc: read-out: DIZ
Aspergillus niger [10] = assay: Antifungal activity against Aspergillus niger assessed as diameter of inhibition zone at 12.5 ug/well after 48 hrs by agar well diffusion method; details: for zone of inhibition at 12.5 µg/disc: read-out: DIZ
Staphylococcus aureus [11] = assay: Antibacterial activity against Staphylococcus aureus assessed as diameter of inhibition zone at 12.5 ug/well after 24 hrs by agar well diffusion method
Klebsiella pneumoniae [12] = assay: Antibacterial activity against Klebsiella pneumoniae assessed as diameter of inhibition zone at 100 ug/well after 24 hrs by agar well diffusion method; details: for zone of inhibition at 100 µg/disc: read-out: DIZ
Klebsiella pneumoniae [13] = assay: Antibacterial activity against Klebsiella pneumoniae assessed as diameter of inhibition zone at 12.5 ug/well after 24 hrs by agar well diffusion method; details: for zone of inhibition at 12.5 µg/disc: read-out: DIZ
Klebsiella pneumoniae [14] = assay: Antibacterial activity against Klebsiella pneumoniae assessed as diameter of inhibition zone at 25 ug/well after 24 hrs by agar well diffusion method; details: for zone of inhibition at 25 µg/disc: read-out: DIZ
Bacillus subtilis [15] = assay: Antibacterial activity against Bacillus subtilis assessed as diameter of inhibition zone at 50 ug/well after 24 hrs by agar well diffusion method
Bacillus subtilis [16] = assay: Antibacterial activity against Bacillus subtilis assessed as diameter of inhibition zone at 25 ug/well after 24 hrs by agar well diffusion method
Klebsiella pneumoniae [17] = assay: Antibacterial activity against Klebsiella pneumoniae after 24 hrs by turbidity-based broth dilution assay
Bacillus subtilis [18] = assay: Antibacterial activity against Bacillus subtilis assessed as diameter of inhibition zone at 12.5 ug/well after 24 hrs by agar well diffusion method
Bacillus subtilis [19] = assay: Antibacterial activity against Bacillus subtilis assessed as diameter of inhibition zone at 100 ug/well after 24 hrs by agar well diffusion method; details: for zone of inhibition at 100 µg/disc: read-out: DIZ
Staphylococcus aureus [20] = assay: Antibacterial activity against Staphylococcus aureus assessed as diameter of inhibition zone at 25 ug/well after 24 hrs by agar well diffusion method
Staphylococcus aureus [21] = assay: Antibacterial activity against Staphylococcus aureus assessed as diameter of inhibition zone at 50 ug/well after 24 hrs by agar well diffusion method
Klebsiella pneumoniae [22] = assay: Antibacterial activity against Klebsiella pneumoniae assessed as diameter of inhibition zone at 50 ug/well after 24 hrs by agar well diffusion method; details: for zone of inhibition at 50 µg/disc: read-out: DIZ
Staphylococcus aureus [23] = assay: Antibacterial activity against Staphylococcus aureus assessed as diameter of inhibition zone at 100 ug/well after 24 hrs by agar well diffusion method
Staphylococcus aureus [24] = assay: Antibacterial activity against Staphylococcus aureus after 24 hrs by turbidity-based broth dilution assay
Pseudomonas aeruginosa [25] = assay: Antibacterial activity against Pseudomonas aeruginosa assessed as diameter of inhibition zone at 100 ug/well after 24 hrs by agar well diffusion method; details: for zone of inhibition at 100 µg/disc: read-out: DIZ
Pseudomonas aeruginosa [26] = assay: Antibacterial activity against Pseudomonas aeruginosa assessed as diameter of inhibition zone at 12.5 ug/well after 24 hrs by agar well diffusion method; details: for zone of inhibition at 12.5 µg/disc: read-out: DIZ
Pseudomonas aeruginosa [27] = assay: Antibacterial activity against Pseudomonas aeruginosa after 24 hrs by turbidity-based broth dilution assay
Pseudomonas aeruginosa [28] = assay: Antibacterial activity against Pseudomonas aeruginosa assessed as diameter of inhibition zone at 50 ug/well after 24 hrs by agar well diffusion method; details: for zone of inhibition at 50 µg/disc: read-out: DIZ
Pseudomonas aeruginosa [29] = assay: Antibacterial activity against Pseudomonas aeruginosa assessed as diameter of inhibition zone at 25 ug/well after 24 hrs by agar well diffusion method; details: for zone of inhibition at 25 µg/disc: read-out: DIZ

Structure (SMILES) | zone of inhibition at 50 µg/disc (Aspergillus niger [1]) [mm] | zone of inhibition at 25 µg/disc (Penicillium chrysogenum [3]) [mm] | zone of inhibition at 100 µg/disc (Aspergillus niger [4]) [mm] | zone of inhibition at 100 µg/disc (Penicillium chrysogenum [5]) [mm] | zone of inhibition at 25 µg/disc (Aspergillus niger [7]) [mm] | zone of inhibition at 50 µg/disc (Penicillium chrysogenum [9]) [mm] | zone of inhibition at 12.5 µg/disc (Aspergillus niger [10]) [mm] | zone of inhibition at 100 µg/disc (Klebsiella pneumoniae [12]) [mm] | zone of inhibition at 12.5 µg/disc (Klebsiella pneumoniae [13]) [mm] | zone of inhibition at 25 µg/disc (Klebsiella pneumoniae [14]) [mm] | zone of inhibition at 100 µg/disc (Bacillus subtilis [19]) [mm] | zone of inhibition at 50 µg/disc (Klebsiella pneumoniae [22]) [mm] | zone of inhibition at 100 µg/disc (Pseudomonas aeruginosa [25]) [mm] | zone of inhibition at 12.5 µg/disc (Pseudomonas aeruginosa [26]) [mm] | zone of inhibition at 50 µg/disc (Pseudomonas aeruginosa [28]) [mm] | zone of inhibition at 25 µg/disc (Pseudomonas aeruginosa [29]) [mm] | diameter of the inhibition zone (DIZ) (Staphylococcus aureus [11]) | diameter of the inhibition zone (DIZ) (Penicillium chrysogenum [2]) | diameter of the inhibition zone (DIZ) (Bacillus subtilis [15]) | diameter of the inhibition zone (DIZ) (Bacillus subtilis [16]) | other results
CC(=O)N1CCN(c2ccc(OCC3COC(Cn4ccnc4)(c4ccc(Cl)cc4Cl)O3)cc2)CC1 (configuration not stated) [KETOCONAZOLE] | 34 | 36 | 37 | 39 | 31 | 37 | 29 |  |  |  |  |  |  |  |  |  |  |  |  |  | zone of inhibition at 12.5 µg/disc (Penicillium chrysogenum [2]; read-out: DIZ): 34 mm; MIC (Aspergillus niger [6]): 6.25 µg; MIC (Penicillium chrysogenum [8]): 12.5 µg
O=C(N[C@H](CO)[C@H](O)c1ccc([N+](=O)[O-])cc1)C(Cl)Cl [CHLORAMPHENICOL] |  |  |  |  |  |  |  | 44 | 38 | 40 | 40 | 42 | 32 | 25 | 29 | 27 |  |  |  |  | zone of inhibition at 12.5 µg/disc (Staphylococcus aureus [11]; read-out: DIZ): 30 mm; zone of inhibition at 50 µg/disc (Bacillus subtilis [15]; read-out: DIZ): 36 mm; zone of inhibition at 25 µg/disc (Bacillus subtilis [16]; read-out: DIZ): 34 mm; MIC (Klebsiella pneumoniae [17]): 12.5 µg; zone of inhibition at 12.5 µg/disc (Bacillus subtilis [18]; read-out: DIZ): 32 mm; zone of inhibition at 25 µg/disc (Staphylococcus aureus [20]; read-out: DIZ): 32 mm; zone of inhibition at 50 µg/disc (Staphylococcus aureus [21]; read-out: DIZ): 35 mm; zone of inhibition at 100 µg/disc (Staphylococcus aureus [23]; read-out: DIZ): 37 mm; MIC (Staphylococcus aureus [24]): 6.25 µg; MIC (Pseudomonas aeruginosa [27]): 6.25 µg
Cc1cc(SCc2nnc(-c3ccc(Br)cc3)o2)nc(SCc2nnc(-c3ccc(Br)cc3)o2)n1 | 17 | 7 | 19 | 11 | 15 | 9 | 13 | 15 | 8 | 10 | 8 | 12 | 15 | 9 | 13 | 11 | inactive | inactive | inactive | inactive | diameter of the inhibition zone (DIZ) (Bacillus subtilis [18]): inactive; diameter of the inhibition zone (DIZ) (Staphylococcus aureus [20]): inactive; diameter of the inhibition zone (DIZ) (Staphylococcus aureus [21]): inactive; diameter of the inhibition zone (DIZ) (Staphylococcus aureus [23]): inactive
COc1ccc(-c2nnc(CSc3cc(C)nc(SCc4nnc(-c5ccc(OC)cc5)o4)n3)o2)cc1 |  |  |  |  |  |  |  |  |  |  |  |  |  |  |  |  | inactive | inactive | inactive | inactive | diameter of the inhibition zone (DIZ) (Aspergillus niger [1]): inactive; diameter of the inhibition zone (DIZ) (Klebsiella pneumoniae [12]): inactive; diameter of the inhibition zone (DIZ) (Klebsiella pneumoniae [13]): inactive; diameter of the inhibition zone (DIZ) (Klebsiella pneumoniae [14]): inactive; diameter of the inhibition zone (DIZ) (Penicillium chrysogenum [3]): inactive; diameter of the inhibition zone (DIZ) (Aspergillus niger [4]): inactive; diameter of the inhibition zone (DIZ) (Bacillus subtilis [18]): inactive; diameter of the inhibition zone (DIZ) (Penicillium chrysogenum [5]): inactive; diameter of the inhibition zone (DIZ) (Bacillus subtilis [19]): inactive; diameter of the inhibition zone (DIZ) (Staphylococcus aureus [20]): inactive; diameter of the inhibition zone (DIZ) (Aspergillus niger [7]): inactive; diameter of the inhibition zone (DIZ) (Staphylococcus aureus [21]): inactive; diameter of the inhibition zone (DIZ) (Klebsiella pneumoniae [22]): inactive; diameter of the inhibition zone (DIZ) (Staphylococcus aureus [23]): inactive; diameter of the inhibition zone (DIZ) (Penicillium chrysogenum [9]): inactive; diameter of the inhibition zone (DIZ) (Aspergillus niger [10]): inactive; diameter of the inhibition zone (DIZ) (Pseudomonas aeruginosa [25]): inactive; diameter of the inhibition zone (DIZ) (Pseudomonas aeruginosa [26]): inactive; diameter of the inhibition zone (DIZ) (Pseudomonas aeruginosa [28]): inactive; diameter of the inhibition zone (DIZ) (Pseudomonas aeruginosa [29]): inactive
